How the values were obtained:
[1] = target: T1, carboxysome-associated PII protein (CPII) (Thiomonas intermedia, UniProt D5X329); assay: crystal structures; assay type: binding
[2] = target: T1, carboxysome-associated PII protein (CPII)

Compound	Kd [1]	crystal structure; EPR titration [2]
Nc1ncnc2c1ncn2[C@@H]1O[C@H](COP(=O)(O)O)[C@@H](O)[C@H]1O [AMP]	1800 µM	
O=C(O)O [bicarbonate]		Bicarbonate molecules bind in nooks formed by Gly-101 and Arg-102, which immediately precede the C-loop α-helix
